The source of these data is patent US9415055B2, “Cyclic amines” (H. Lundbeck A/S, priority 2012, dated 2016).

The structures appear in SMILES notation. pIC50: −log10 of the molar value.

For the experiment, the target named is P2X7 receptor (Homo sapiens (Human), UniProt Q99572). Briefly: P2X7 FLIPR assay: antagonism of BzATP response in 293 HEK cells stably expressing P2X7 receptor. The class given is cell-based. Conditions: FLIPR fluorescence (Fluo-4), agonist BzATP, 293 HEK cells stably transfected with P2X7 receptor. The method, boiled down: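 Antagonist IC50 derived from FLIPR Tetra Fluo-4 calcium signal evoked by BzATP. Compound pre-incubation was 30 min at room temperature on P2X7-expressing HEK293 cells, seeded 24 h before in low-serum medium and dye-loaded 30 min at 37 °C then 30 min at RT.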
Sequence of P2X7 receptor (Q99572 whole entry): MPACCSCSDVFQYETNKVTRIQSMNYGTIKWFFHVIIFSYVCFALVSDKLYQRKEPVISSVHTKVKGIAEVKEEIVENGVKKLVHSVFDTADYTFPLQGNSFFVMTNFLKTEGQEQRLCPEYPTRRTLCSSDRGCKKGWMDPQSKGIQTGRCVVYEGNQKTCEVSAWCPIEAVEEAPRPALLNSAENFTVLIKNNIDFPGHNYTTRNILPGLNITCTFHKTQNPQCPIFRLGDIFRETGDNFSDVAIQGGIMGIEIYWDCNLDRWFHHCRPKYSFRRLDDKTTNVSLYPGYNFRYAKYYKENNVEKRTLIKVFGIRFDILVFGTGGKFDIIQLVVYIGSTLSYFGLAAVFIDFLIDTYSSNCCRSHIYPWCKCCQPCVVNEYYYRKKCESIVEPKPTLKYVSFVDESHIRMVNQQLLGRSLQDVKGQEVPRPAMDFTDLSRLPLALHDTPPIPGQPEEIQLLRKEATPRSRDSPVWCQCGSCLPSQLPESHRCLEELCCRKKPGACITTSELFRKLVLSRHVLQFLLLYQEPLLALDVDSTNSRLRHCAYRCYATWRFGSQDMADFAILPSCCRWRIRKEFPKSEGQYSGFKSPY
`O=C(NCC(c1ccc(F)nc1)N1CCC(F)(F)CC1)c1cccc(Cl)c1Cl` (stereo not shown) [2,3-Dichloro-N-[2-(4,4-difluoro-1-piperidyl)-2-(6-fluoro-3-pyridyl)ethyl]benzamide] gave a pIC50 of 9.05.
Under `O=C(NCC(c1cnc(C(F)(F)F)nc1)N1CCC(F)CC1)c1cccc(Cl)c1Cl` (single isomer, unassigned; (-)) [(−)2,3-dichloro-N-[2-(4-fluoro-1-piperidyl)-2-[2-(trifluorom] [(−)2,3-dichloro-N-(2-(4-fluoropiperidin-1-yl)-2-(2-(trifluoromethyl)pyrimidin-5-yl)ethyl)benzamide] stands 8.33; under `Cn1cc(C(CNC(=O)c2cc(F)cc(Cl)c2Cl)N2CCC(F)(F)CC2)cn1` (single isomer, unassigned; (+)) [(+)2,3-dichloro-N-[2-(4,4-difluoro-1-piperidyl)-2-(1-methylp] [(+)2,3-dichloro-5-fluoro-N-(2-(4,4-difluoropiperidin-1-yl)-2-(1-methyl-1H-pyrazol-4-yl)ethyl)benzamide], 7.47; under `CCc1ncc(C(CNC(=O)c2c(Cl)cccc2Cl)N2CCC(F)(F)CC2)cn1` (single isomer, unassigned; (+)) [(+)2,6-dichloro-N-[2-(4,4-difluoro-1-piperidyl)-2-(2-ethylpy] [(+2,6-dichloro-N-(2-(4,4-difluoropiperidin-1-yl)-2-(2-ethylpyrimidin-5-yl)ethyl)benzamide], 7.82.
In turn, `O=C(NCC(c1ccc(C2CC2)nc1)N1CCOCC1)c1cccc(Cl)c1Cl` (stereo not shown) [2,3-Dichloro-N-[2-(6-cyclopropyl-pyridin-3-yl)-2-morpholin-4-yl-ethyl]-benzamide] had a pIC50 of 8.09.
For `Cc1ncc(C(CNC(=O)c2c(F)cccc2Cl)N2CCC(F)(F)CC2)cn1` (single isomer, unassigned; (-)) [(−)2-chloro-N-[2-(4,4-difluoro-1-piperidyl)-2-(2-methylpyrim] [(−)2-chloro-6-fluoro-N-(2-(4,4-difluoropiperidin-1-yl)-2-(2-methylpyrimidin-5-yl)ethyl)benzamide], the pIC50 is 7.49.
The result for `CS(=O)(=O)c1ccc(Cl)c(C(=O)NCC(c2ccc(Cl)cc2)N2CCOCC2)c1` (single isomer, unassigned; (-)) [(−)2-chloro-N-[2-(4-chlorophenyl)-2-morpholino-ethyl]-5-meth] [(−)2-chloro-N-(2-(4-chlorophenyl)-2-morpholinoethyl)-5-(methylsulfonyl)benzamide] reads 7.19.
For `O=C(NCC(c1cnc(C(F)(F)F)nc1)N1CCC(F)(F)CC1)c1c(F)cccc1Cl` (single isomer, unassigned; (-)) [(−)2-chloro-N-[2-(4,4-difluoro-1-piperidyl)-2-[2-(trifluorom] [(−)2-chloro-6-fluoro-N-(2-(4,4-difluoropiperidin-1-yl)-2-(trifluoromethyl)pyrimidin-5-yl)ethyl)benzamide], the pIC50 is 8.09.
In turn, `Cc1ncc(C(CNC(=O)c2cccc(Cl)c2Cl)N2CCCC(F)(F)C2)cn1` (single isomer, unassigned; (+)) [(+2,3-dichloro-N-(2-(3,3-difluoropiperidin-1-yl)-2-(2-methylpyrimidin-5-yl)ethyl)benzamide] showed a pIC50 of 7.85.
The result for `Cc1ncc(C(CNC(=O)c2cccc(Cl)c2Cl)N2CCC(F)(F)CC2)cn1` (single isomer, unassigned; (+)) [(+)2,3-dichloro-N-[2-(4,4-difluoro-1-piperidyl)-2-(2-methylp] [(+)2,3-dichloro-N-(2-(4,4-difluoropiperidin-1-yl)-2-(2-methylpyrimidin-5-yl)ethyl)benzamide] reads 8.49; that for `Cc1ncc(C(CNC(=O)c2c(Cl)cccc2Cl)N2CCC(F)CC2)cn1` (single isomer, unassigned; (-)) [(−)2,6-dichloro-N-[2-(4-fluoro-1-piperidyl)-2-(2-methylpyrim] [(−)2,6-dichloro-N-(2-(4-fluoropiperidin-1-yl)-2-(2-methylpyrimidin-5-yl)ethyl)benzamide], 7.28; that for `Cc1ccc(Cl)c(C(=O)NCC(c2ccncc2)N2CCOCC2)c1` (stereo not shown) [2-Chloro-5-methyl-N-(2-morpholin-4-yl-2-pyridin-4-yl-ethyl)-benzamide], 5.57.
With `Cc1ncc(C(CNC(=O)c2cccc(Cl)c2Cl)N2CCC(F)(F)CC2)cn1` (stereo not shown) [2,3-dichloro-N-[2-(4,4-difluoro-1-piperidyl)-2-(2-methylpyri] [2,3-dichloro-N-(2-(4,4-difluoropiperidin-1-yl)-2-(2-methylpyrimidin-5-yl)ethyl)benzamide], the pIC50 is 8.37. Compared with the last compound, the pIC50 is 2.80 log units higher.
As for `O=C(NCC(c1cnc(C(F)F)nc1)N1CCOCC1)c1cccc(F)c1Cl` (single isomer, unassigned; (+)) [(+)2-chloro-N-[2-[2-(difluoromethyl)pyrimidin-5-yl]-2-morpho] [(+)2-chloro-3-fluoro-N-(2-(2-(difluoromethyl)pyrimidin-5-yl)-2-morpholinoethyl)benzamide], the pIC50 was 8.32.
Under `Cc1ncc(C(CNC(=O)c2ccccc2Cl)N2CCCC(F)(F)C2)cn1` (single isomer, unassigned; (-)) [(−)2-chloro-N-[2-(3,3-difluoro-1-piperidyl)-2-(2-methylpyrim] [(−)2-chloro-N-(2-(3,3-difluoropiperidin-1-yl)-2-(2-methylpyrimidin-5-yl)ethyl)benzamide] stands 7.55; under `Cc1cccc(C(=O)NCC(c2ccncc2)N2CCOCC2)c1C` (stereo not shown) [2,3-Dimethyl-N-(2-morpholin-4-yl-2-pyridin-4-yl-ethyl)-benzamide], 5.85.
The result for `O=C(NCC(c1cnc(C(F)(F)F)nc1)N1CCC(F)(F)CC1)c1ccccc1Cl` (stereo not shown) [2-chloro-N-(2-(4,4-difluoropiperidin-1-yl)-2-(2-(trifluoromethyl)pyrimidin-5-yl)ethyl)benzamide] reads 8.55; that for `COc1cccc(C(=O)NCC(c2ccc(Cl)cc2)N2CCOCC2)c1Cl` (single isomer, unassigned; (-)) [(−)2-chloro-N-[2-(4-chlorophenyl)-2-morpholino-ethyl]-3-meth] [(−)2-chloro-N-(2-(4-chlorophenyl)-2-morpholinoethyl)-3-methoxybenzamide], 8.82; that for `O=C(NCC(c1ccc(Cl)cc1)N1CCCC1)c1cccc(Cl)c1Cl` (stereo not shown) [2,3-dichloro-N-(2-(4-chlorophenyl)-24 pyrrolidin-1-yl)ethyl)benzamide], 5.74.
In turn, `O=C(NCC(c1ccc(Cl)cc1)N1CCOCC1)c1cccc(Cl)c1Cl` (stereo not shown) [2,3-Dichloro-N-[2-(4-chloro-phenyl)-2-morpholin-4-yl-ethyl]-benzamide] had a pIC50 of 9.22.
In the case of `O=C(NCC(c1cnc(C(F)(F)F)nc1)N1CCC(F)(F)CC1)c1cccc(F)c1Cl` (single isomer, unassigned; (+)) [(+)2-chloro-N-[2-(4,4-difluoro-1-piperidyl)-2-[2-(trifluorom] [(+)2-chloro-N-(2-(4,4-difluoropiperidin-1-yl)-2-(2-(trifluoromethyl)pyrimidin-5-yl)ethyl)-3-fluorobenzamide], the pIC50 is 8.77. Compared with the last compound, the pIC50 is 0.45 log units lower.
`Cc1ncc(C(CNC(=O)c2ccccc2Cl)N2CCC(F)(F)CC2)cn1` (single isomer, unassigned; (+)) [(+)2-chloro-N-[2-(4,4-difluoro-1-piperidyl)-2-(2-methylpyrim] [(+)2-chloro-N-[2-(4,4-difluoro-1-piperidyl)-2-(2-methylpyrimidin-5-yl)ethyl]benzamide] gave a pIC50 of 7.89.

Broadly, the pIC50 is the IC50 on a negative log10 scale, so that one unit is a factor of ten. Low readings indicate a high IC50, high ones a low IC50.
